Assay results taken from US12077503B2, “Substituted cyclic amides and their use as herbicides” (FMC CORPORATION, priority 2015, dated 2024).

Legend:
Type in all cases: in vivo
Kochia (Kochia scoparia) [1] = experiment: Test A preemergence; conditions: Bassia scoparia, pre-emergence, 240 h
Outline: (§1)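 Each rating is a visual injury score from 0 to 100 given about 10 d after treatment, judged against untreated controls kept alongside in the greenhouse. In loam soil–sand blend, seeds got a preemergence directed soil spray, while postemergence plants were 2 to 10 cm tall at spraying.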

[2] = system: pigweed (Amaranthus retroflexus); experiment: Test A preemergence; conditions: Amaranthus retroflexus, pre-emergence, 240 h
[3] = system: ragweed (common ragweed, Ambrosia elatior); experiment: Test A preemergence; conditions: Ambrosia artemisiifolia, pre-emergence, 240 h
Outline: as §1

[4] = system: ryegrass, Italian (Italian ryegrass, Lolium multiflorum); experiment: Test A preemergence; conditions: Lolium multiflorum, pre-emergence, 240 h
Outline: as §1

[5] = system: barnyardgrass (Echinochloa crus-galli); experiment: Test A preemergence; conditions: Echinochloa crus-galli, pre-emergence, 240 h
Outline: as §1

Kochia (Kochia scoparia) [6] = experiment: Test A postemergence; conditions: Bassia scoparia, post-emergence, 240 h, 125 g ai/ha, Postemergence; visual injury after approximately 10 d; 0 to 100 scale where 0 is no effect and 100 is complete control; read-out: Plant response rating, Kochia
Outline: as §1

[7] = system: wheat (Triticum aestivum); experiment: Test A postemergence; conditions: Triticum aestivum, post-emergence, 240 h, 125 g ai/ha, Postemergence; visual injury after approximately 10 d; 0 to 100 scale where 0 is no effect and 100 is complete control; read-out: Plant response rating, Wheat
Outline: as §1

[8] = system: giant foxtail (Setaria faberii); experiment: Test A postemergence; conditions: Setaria faberi, post-emergence, 240 h, 125 g ai/ha, Postemergence; visual injury after approximately 10 d; 0 to 100 scale where 0 is no effect and 100 is complete control; read-out: Plant response rating, Foxtail, Giant
Outline: as §1

[9] = system: pigweed (Amaranthus retroflexus); experiment: Test A postemergence; conditions: Amaranthus retroflexus, post-emergence, 240 h, 125 g ai/ha, Postemergence; visual injury after approximately 10 d; 0 to 100 scale where 0 is no effect and 100 is complete control; read-out: Plant response rating, Pigweed
Outline: as §1

[10] = system: blackgrass (Alopecurus myosuroides); experiment: Test A postemergence; conditions: Alopecurus myosuroides, post-emergence, 240 h, 125 g ai/ha, Postemergence; visual injury after approximately 10 d; 0 to 100 scale where 0 is no effect and 100 is complete control; read-out: Plant response rating, Blackgrass
Outline: as §1

[11] = system: ragweed (common ragweed, Ambrosia elatior); experiment: Test A postemergence; conditions: Ambrosia artemisiifolia, post-emergence, 240 h, 125 g ai/ha, Postemergence; visual injury after approximately 10 d; 0 to 100 scale where 0 is no effect and 100 is complete control; read-out: Plant response rating, Ragweed
Outline: as §1

[12] = system: ryegrass, Italian (Italian ryegrass, Lolium multiflorum); experiment: Test A postemergence; conditions: Lolium multiflorum, post-emergence, 240 h, 125 g ai/ha, Postemergence; visual injury after approximately 10 d; 0 to 100 scale where 0 is no effect and 100 is complete control; read-out: Plant response rating, Ryegrass, Italian
Outline: as §1

[13] = system: barnyardgrass (Echinochloa crus-galli); experiment: Test A postemergence; conditions: Echinochloa crus-galli, post-emergence, 240 h, 125 g ai/ha, Postemergence; visual injury after approximately 10 d; 0 to 100 scale where 0 is no effect and 100 is complete control; read-out: Plant response rating, Barnyardgrass
Outline: as §1

[14] = system: Galium (catchweed bedstraw, Galium aparine); experiment: Test A postemergence; conditions: Galium, post-emergence, 240 h, 125 g ai/ha, Postemergence; visual injury after approximately 10 d; 0 to 100 scale where 0 is no effect and 100 is complete control; read-out: Plant response rating, Galium
Outline: as §1

corn (Zea mays) = experiment: Test A postemergence; conditions: Zea mays, post-emergence, 240 h, 125 g ai/ha, Postemergence; visual injury after approximately 10 d; 0 to 100 scale where 0 is no effect and 100 is complete control
Outline: as §1

Compound CC(C)COc1cccc([C@H]2CNC(=O)[C@@H]2C(=O)Nc2ccc(F)cc2F)c1 [Compound 966] has a pest or weed control at 125 g/ha (Kochia (Kochia scoparia) [1]; 125 g ai/ha, Preemergence, visual injury rating after approximately 10 d, read-out: Kochia plant response rating (0 to 100 scale, 0 is no effect, 100 is complete control)) of 30%, a pest or weed control at 500 g/ha (Kochia (Kochia scoparia) [1]; 500 g ai/ha, preemergence, visual injury rating about 10 d after treatment, 0 to 100 scale (0 no effect, 100 complete control), read-out: Kochia plant response rating) of 30% and a pest or weed control at 125 g/ha ([2]; 125 g ai/ha, Preemergence, visual injury rating after approximately 10 d, read-out: Pigweed plant response rating (0 to 100 scale, 0 is no effect, 100 is complete control)) of 0%. The pest or weed control at 500 g/ha ([2]; 500 g ai/ha, preemergence, visual injury rating about 10 d after treatment, 0 to 100 scale (0 no effect, 100 complete control), read-out: Pigweed plant response rating) was 0%, the pest or weed control at 125 g/ha ([3]; 125 g ai/ha, Preemergence, visual injury rating after approximately 10 d, read-out: Ragweed plant response rating (0 to 100 scale, 0 is no effect, 100 is complete control)) was 0% and the pest or weed control at 500 g/ha ([3]; 500 g ai/ha, preemergence, visual injury rating about 10 d after treatment, 0 to 100 scale (0 no effect, 100 complete control), read-out: Ragweed plant response rating) was 0%. For the same compound, the pest or weed control at 125 g/ha ([4]; 125 g ai/ha, Preemergence, visual injury rating after approximately 10 d, read-out: Ryegrass, Italian plant response rating (0 to 100 scale, 0 is no effect, 100 is complete control)) was 20%, the pest or weed control at 500 g/ha ([4]; 500 g ai/ha, preemergence, visual injury rating about 10 d after treatment, 0 to 100 scale (0 no effect, 100 complete control), read-out: Ryegrass, Italian plant response rating) was 60% and the pest or weed control at 125 g/ha ([5]; 125 g ai/ha, Preemergence, visual injury rating after approximately 10 d, read-out: Barnyardgrass plant response rating (0 to 100 scale, 0 is no effect, 100 is complete control)) was 80%. For the same compound, the pest or weed control at 500 g/ha ([5]; 500 g ai/ha, preemergence, visual injury rating about 10 d after treatment, 0 to 100 scale (0 no effect, 100 complete control), read-out: Barnyardgrass plant response rating) was 90%, the pest or weed control at 125 g/ha (Kochia (Kochia scoparia) [6]) was 0% and the plant injury at 125 g/ha [7] was 0%. For the same compound, the pest or weed control at 125 g/ha [8] was 40%, the pest or weed control at 125 g/ha [9] was 0% and the pest or weed control at 125 g/ha [10] was 20%. For the same compound, the pest or weed control at 125 g/ha [11] was 0%, the pest or weed control at 125 g/ha [12] was 0% and the pest or weed control at 125 g/ha [13] was 60%. For the same compound, the pest or weed control at 125 g/ha [14] was 20% and the Corn plant response rating (crop injury, 0 = no effect, 100 = complete kill) at 125 g/ha (corn (Zea mays)) was 0%.
